Data published in patent publication US10766869B2, “Triazoles for the treatment of demyelinating dieases” (Vertex Pharmaceuticals Incorporated, priority 2015, dated 2020).
Like-named read-outs stand apart in the source and are kept apart here.

Test system: primary rat mixed cortical cells
Experiment: In vitro myelination assay (MBP positive myelin strands, fold myelin pixels above background)
Format: cell-based
Settings: Rattus norvegicus; for fold induction at 10 µM: 10.0 μM compound; for fold induction at 1 µM: 1.0 μM compound
Method in brief: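 P1 rat mixed cortical cultures (neurons, OPCs, oligodendrocytes, astrocytes, microglia) grown 14 days at 37 °C with compound, half-medium refreshed with compound on days 6 and 10. Fixed cells stained for MBP; MBP-positive myelin strand pixels per well quantified by automated imaging, reported as fold over no-compound baseline at 1.0 and 10.0 μM.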

[1] = relative to baseline of no added compound, read-out: Fold myelin pixels above background
[2] = relative to baseline of no added compound, read-out: Fold myelin pixels above background, 1.0 μM
[3] = relative to baseline of no added compound, read-out: Fold myelin pixels above background, 10.0 μM
[4] = read-out: Fold myelin pixels above background relative to baseline of no added compound

Row | Compound | fold induction at 10 µM [1] | fold induction at 1 µM [2] | fold induction at 10 µM [3] | fold induction at 1 µM [1] | other results
1 | Cc1cc(Nc2ncn(-c3ccnc(N4CCCCCC4)c3)n2)cc(N2CCN(C)CC2)c1 [Compound 495, 1-[2-(azepan-1-yl)-4-pyridyl]-N-[3-methyl-5-(4-methylpiperazin-1-yl)phenyl]-1,2,4-triazol-3-amine] | ≤ 1 | – | – | – | –
2 | CCc1cc(Nc2ncn(-c3ccnc(SC)n3)n2)cc(N2CCN(C3COC3)CC2)c1 [Compound 132, N-[3-ethyl-5-[4-(oxetan-3-yl)piperazin-1-yl]phenyl]-1-(2-methylsulfanylpyrimidin-4-yl)-1,2,4-triazol-3-amine] | – | 1 to 10 | 1 to 10 | – | –
3 | COc1cccc(-n2cnc(Nc3cc(Cl)nc(N4CCCCC4)c3)n2)c1 [Compound 106, 2-chloro-N-[1-(3-methoxyphenyl)-1,2,4-triazol-3-yl]-6-(1-piperidyl)pyridin-4-amine] | – | ≤ 1 | 1 to 10 | – | –
4 | Cc1cc(Nc2ncn(-c3ccc(F)c(F)c3)n2)cc(OCC2CC(F)(F)C2)c1 [Compound 640, N-[3-[(3,3-difluorocyclobutyl)methoxy]-5-methyl-phenyl]-1-(3,4-difluorophenyl)-1,2,4-triazol-3-amine] | 1 to 10 | – | – | 10 to 100 | –
5 | CCc1cc(Nc2ncn(-c3cncnc3)n2)cc(N2CC(N3CCOCC3)C2)c1 [Compound 544, N-[3-ethyl-5-(3-morpholinoazetidin-1-yl)phenyl]-1-pyrimidin-5-yl-1,2,4-triazol-3-amine] | 10 to 100 | – | – | 1 to 10 | –
6 | Cc1cc(Nc2ncn(-c3cc(F)cc(F)c3)n2)cc(O[C@H]2CCCN(C3COC3)C2)c1 (single isomer, unassigned) [Compound 700] | ≤ 1 | – | – | 10 to 100 | –
7 | [2H]C1([2H])N(c2cc(C)cc(Nc3ncn(-c4cc(F)cc(F)c4)n3)c2)C([2H])([2H])C([2H])([2H])N(C2CCC2)C1([2H])[2H] [Compound 994, N-[3-(4-cyclobutyl-2,2,3,3,5,5,6,6-octadeuterio-piperazin-1-yl)-5-methyl-phenyl]-1-(3,5-difluorophenyl)-1,2,4-triazol-3-amine] | – | – | – | – | fold induction at 1 µM [4]: 1 to 10; fold induction at 10 µM [4]: 1 to 10
8 | Cc1cc(Nc2ncn(-c3ccccc3)n2)cc(N2CCCN(C)CC2)c1 [Compound 179, N-[3-methyl-5-(4-methyl-1,4-diazepan-1-yl)phenyl]-1-phenyl-1,2,4-triazol-3-amine] | – | 100 to 1000 | ≤ 1 | – | –
9 | CCN1CCCC(Nc2cc(C)cc(Nc3ncn(-c4cc(F)cc(F)c4)n3)c2)C1 (stereo not drawn) [Compound 897, N3-[1-(3,5-difluorophenyl)-1,2,4-triazol-3-yl]-N1-(1-ethyl-3-piperidyl)-5-methyl-benzene-1,3-diamine] | – | – | – | – | fold induction at 1 µM [4]: 1 to 10; fold induction at 10 µM [4]: ≤ 1
10 | Cc1cc(Nc2ncn(-c3cc(F)ccc3F)n2)cc(N2CCC(C3COC3)CC2)c1 [Compound 383, 1-(2,5-difluorophenyl)-N-[3-methyl-5-[4-(oxetan-3-yl)-1-piperidyl]phenyl]-1,2,4-triazol-3-amine] | – | 10 to 100 | 1 to 10 | – | –
11 | Brc1cc(Nc2ncn(-c3ccccc3)n2)cc(N2CCOCC2)c1 [Compound 168, N-(3-bromo-5-morpholino-phenyl)-1-phenyl-1,2,4-triazol-3-amine] | – | 1000 to 10000 | 1000 to 10000 | – | –
12 | Cc1cc(Nc2ncn(-c3ccccc3)n2)cc(Nc2nccs2)c1 [Compound 643, 5-methyl-N3-(1-phenyl-1,2,4-triazol-3-yl)-N1-thiazol-2-yl-benzene-1,3-diamine] | ≤ 1 | – | – | 10 to 100 | –
13 | CCc1cc(Nc2ncn(-c3cc(F)cc(F)c3)n2)cc(N2CCN(C3(C)COC3)CC2)c1 [Compound 264, 1-(3,5-difluorophenyl)-N-[3-ethyl-5-[4-(3-methyloxetan-3-yl)piperazin-1-yl]phenyl]-1,2,4-triazol-3-amine] | – | 10 to 100 | 10 to 100 | – | –
14 | Cc1cc(Nc2ncn(-c3cc(C)nc(C)n3)n2)cc(N2CCN(C3COC3)CC2)c1 [Compound 312, 1-(2,6-dimethylpyrimidin-4-yl)-N-[3-methyl-5-[4-(oxetan-3-yl)piperazin-1-yl]phenyl]-1,2,4-triazol-3-amine] | – | 1 to 10 | 1 to 10 | – | –
15 | Cc1cc(Nc2ncn(-c3ccc(F)c(F)c3)n2)cc(N2CCC(C3COC3)CC2)c1 [Compound 169, 1-(3,4-difluorophenyl)-N-[3-methyl-5-[4-(oxetan-3-yl)-1-piperidyl]phenyl]-1,2,4-triazol-3-amine] | – | 10 to 100 | 1 to 10 | – | –
16 | Cc1cc(Nc2ncn(-c3cc(F)cc(F)c3)n2)cc(N2CCC(N3CCC(O)C3)C2)c1 (stereo not drawn) [Compound 1040, 1-[1-[3-[[1-(3,5-difluorophenyl)-1,2,4-triazol-3-yl]amino]-5-methyl-phenyl]pyrrolidin-3-yl]pyrrolidin-3-ol] | – | – | – | – | fold induction at 1 µM [4]: 10 to 100; fold induction at 10 µM [4]: ≤ 1
17 | Cc1cc(Nc2ncn(-c3ccccc3)n2)cc(OC2CCN(C3COC3)CC2)c1 [Compound 410, N-[3-methyl-5-[[1-(oxetan-3-yl)-4-piperidyl]oxy]phenyl]-1-phenyl-1,2,4-triazol-3-amine] | ≤ 1 | – | – | 10 to 100 | –
18 | Cc1cc(Nc2ncn(-c3cc(F)cc(F)c3)n2)cc(N2CC(O)C(N3CCCC3)C2)c1 (stereo not drawn) [Compound 1010, 1-[3-[[1-(3,5-difluorophenyl)-1,2,4-triazol-3-yl]amino]-5-methyl-phenyl]-4-pyrrolidin-1-yl-pyrrolidin-3-ol] | – | – | – | – | fold induction at 1 µM [4]: 1 to 10; fold induction at 10 µM [4]: ≤ 1
19 | CCc1cc(Nc2ncn(-c3cccc(OC)c3)n2)cc(N2CCN(C3COC3)CC2)c1 [Compound 432, N-[3-ethyl-5-[4-(oxetan-3-yl)piperazin-1-yl]phenyl]-1-(3-methoxyphenyl)-1,2,4-triazol-3-amine] | 1 to 10 | – | – | 100 to 1000 | –
20 | Cc1cc(Nc2ncn(-c3cc(F)cc(F)c3)n2)cc(NC(C)CN2CCOCC2)c1 (stereo not drawn) [Compound 931, N3-[1-(3,5-difluorophenyl)-1,2,4-triazol-3-yl]-5-methyl-N1-(1-methyl-2-morpholino-ethyl)benzene-1,3-diamine] | – | – | – | – | fold induction at 1 µM [4]: 10 to 100; fold induction at 10 µM [4]: ≤ 1
21 | CSc1nccc(-n2cnc(Nc3cc(C)cc(N4CCN(C5COC5)CC4)c3)n2)n1 [Compound 64, N-[3-methyl-5-[4-(oxetan-3-yl)piperazin-1-yl]phenyl]-1-(2-methylsulfanylpyrimidin-4-yl)-1,2,4-triazol-3-amine] | – | 10 to 100 | ≤ 1 | – | –
22 | Cc1cc(Nc2ncn(-c3cc(F)cc(F)c3)n2)c(F)c(N2CC3(COC3)C2)c1 [Compound 743, 1-(3,5-difluorophenyl)-N-[2-fluoro-5-methyl-3-(2-oxa-6-azaspiro[3.3]heptan-6-yl)phenyl]-1,2,4-triazol-3-amine] | 10 to 100 | – | – | 1 to 10 | –
23 | Cc1cc(-n2cnc(Nc3cc(C4CC4)cc(N4CCN(C5COC5)CC4)c3)n2)ncn1 [Compound 302, N-[3-cyclopropyl-5-[4-(oxetan-3-yl)piperazin-1-yl]phenyl]-1-(6-methylpyrimidin-4-yl)-1,2,4-triazol-3-amine] | – | 1000 to 10000 | 1000 to 10000 | – | –
